Tests used:
Type in all cases: biochemical
CLK3 = CLK3 (Homo sapiens (Human), UniProt P49761); test: Inhibition of CLK3 kinase activity evaluated at Nanosyn (ADP-Glo); conditions: ADP-Glo luminescence
Protocol: (§1) Inhibition of CLK, CLK2, CLK3 and CLK4 Kinase Activity Evaluated at Nanosyn
(§2) Kinase protein and substrate were pre-diluted in the HEPES assay buffer (100 mM HEPES, pH 7.5, 0.01% Triton X-100, 0.1% BSA, 5 mM MgCl2, […] DTT, 10 Sodium Orthovanadate, […] Beta-Glycerophosphate) dispensed into 384 well plate (5 μL per well). Control samples (0%-inhibition in the absence of inhibitor, DMSO only) and 100%-inhibition (in the absence of enzyme) were assembled in replicates of six and were used to calculate %-inhibition in the presence of compounds. Test compounds were added to the protein samples by acoustic dispensing (Labcyte Echo550). Concentration of DMSO was equalized to 1% in all samples. Reactions were initiated by addition of ATP by acoustic dispensing (Labcyte Echo550) and incubated according to assay specific incubation time. After incubation. 5 μL of Promega ADP-Glo reagent was added and incubated for 40 minutes. After 40 minutes, 10 uL of Promega kinase detection reagent was added. After 10 min of incubation with Kinase detection reagent, the luminescence was read on microplate reader (Biotek Synergy).

CLK4 = CLK4 (Homo sapiens (Human), UniProt Q9HAZ1); test: Inhibition of CLK4 kinase activity evaluated at Nanosyn (ADP-Glo); conditions: ADP-Glo luminescence
Protocol: as §1, §2

CLK1 = CLK1 (Homo sapiens (Human), UniProt P49759); test: Inhibition of CLK1 kinase activity evaluated at Nanosyn (ADP-Glo); conditions: ADP-Glo luminescence
Protocol: as §1, §2

CLK2 = CLK2 (Homo sapiens (Human), UniProt P49760); test: Inhibition of CLK2 kinase activity evaluated at Nanosyn (ADP-Glo); conditions: ADP-Glo luminescence
Protocol: as §1, §2

[1] = molecular target: EGFR Δ746-750/C797S mutant (Homo sapiens (Human), UniProt P00533, C797S/DEL746-750); test: HotSpot radiometric kinase assay, EGFR Δ746-750/C797S mutant; conditions: 10 μM ATP
How it was run: (§3)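 IC50 values come from curve fits of ^33P incorporation captured on P81 filters after acid washing. Kinase reactions ran 120 min at room temperature with 10 μM ATP, added about 20 min after compound. Buffer was Hepes pH 7.5 containing Mg, DTT and 1% DMSO.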

EGFR L858R/T790M mutant = EGFR L858R/T790M mutant (Homo sapiens (Human), UniProt P00533, L858R/T790M); test: HotSpot radiometric kinase assay, EGFR L858R/T790M mutant; conditions: 10 μM ATP
How it was run: as §3

EGFR L858R mutant = EGFR L858R mutant (Homo sapiens (Human), UniProt P00533, L858R); test: HotSpot radiometric kinase assay, EGFR L858R mutant; conditions: 10 μM ATP
How it was run: as §3

EGFR WT = EGFR WT (Homo sapiens (Human), UniProt P00533); test: HotSpot radiometric kinase assay (Reaction Biology), EGFR WT; conditions: 10 μM ATP
How it was run: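 Kinase, substrate and cofactors are mixed in 20 mM Hepes pH 7.5 with 10 mM MgCl2, 1 mM EGTA, 2 mM DTT and 1% DMSO. Compound is added, and about 20 min later ATP/33P-ATP (10 μM final) starts a 120-min room-temperature reaction, which is then spotted onto P81 paper.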

EGFR (D770_N771insNPG) = EGFR (D770_N771insNPG) (Homo sapiens (Human), UniProt P00533, INS770NPG); test: HotSpot radiometric kinase assay, EGFR (D770_N771insNPG); conditions: 10 μM ATP, read-out: EGFR (Δ770_N771insNPG) IC50
How it was run: as §3

[2] = molecular target: EGFR L858R/T790M/C797S mutant (Homo sapiens (Human), UniProt P00533, C797S/L858R/T790M); test: HotSpot radiometric kinase assay, EGFR L858R/T790M/C797S mutant; conditions: 10 μM ATP
How it was run: as §3

EGFR Δ746-750 mutant = EGFR Δ746-750 mutant (Homo sapiens (Human), UniProt P00533, DEL746-750); test: HotSpot radiometric kinase assay, EGFR Δ746-750 mutant; conditions: 10 μM ATP
How it was run: as §3

Chain of EGFR Δ746-750 mutant (P00533 other isoform, or with tags, fused parts or gaps del 1-668/del 746-750 limits assumed): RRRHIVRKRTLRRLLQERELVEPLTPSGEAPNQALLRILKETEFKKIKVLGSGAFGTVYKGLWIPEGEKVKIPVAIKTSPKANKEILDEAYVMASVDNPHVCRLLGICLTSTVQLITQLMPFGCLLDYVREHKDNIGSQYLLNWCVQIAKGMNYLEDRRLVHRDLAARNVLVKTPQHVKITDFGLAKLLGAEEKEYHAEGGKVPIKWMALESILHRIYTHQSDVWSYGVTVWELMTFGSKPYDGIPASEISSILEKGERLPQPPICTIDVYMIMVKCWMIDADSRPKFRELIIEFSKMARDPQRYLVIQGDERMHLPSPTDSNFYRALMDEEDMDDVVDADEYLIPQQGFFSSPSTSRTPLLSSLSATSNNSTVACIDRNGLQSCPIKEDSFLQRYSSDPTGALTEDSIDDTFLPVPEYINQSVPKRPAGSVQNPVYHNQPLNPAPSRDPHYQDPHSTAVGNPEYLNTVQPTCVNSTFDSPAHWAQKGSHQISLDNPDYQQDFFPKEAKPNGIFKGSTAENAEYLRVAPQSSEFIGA
Chain of EGFR L858R/T790M mutant (P00533 25-1210 T790M/L858R): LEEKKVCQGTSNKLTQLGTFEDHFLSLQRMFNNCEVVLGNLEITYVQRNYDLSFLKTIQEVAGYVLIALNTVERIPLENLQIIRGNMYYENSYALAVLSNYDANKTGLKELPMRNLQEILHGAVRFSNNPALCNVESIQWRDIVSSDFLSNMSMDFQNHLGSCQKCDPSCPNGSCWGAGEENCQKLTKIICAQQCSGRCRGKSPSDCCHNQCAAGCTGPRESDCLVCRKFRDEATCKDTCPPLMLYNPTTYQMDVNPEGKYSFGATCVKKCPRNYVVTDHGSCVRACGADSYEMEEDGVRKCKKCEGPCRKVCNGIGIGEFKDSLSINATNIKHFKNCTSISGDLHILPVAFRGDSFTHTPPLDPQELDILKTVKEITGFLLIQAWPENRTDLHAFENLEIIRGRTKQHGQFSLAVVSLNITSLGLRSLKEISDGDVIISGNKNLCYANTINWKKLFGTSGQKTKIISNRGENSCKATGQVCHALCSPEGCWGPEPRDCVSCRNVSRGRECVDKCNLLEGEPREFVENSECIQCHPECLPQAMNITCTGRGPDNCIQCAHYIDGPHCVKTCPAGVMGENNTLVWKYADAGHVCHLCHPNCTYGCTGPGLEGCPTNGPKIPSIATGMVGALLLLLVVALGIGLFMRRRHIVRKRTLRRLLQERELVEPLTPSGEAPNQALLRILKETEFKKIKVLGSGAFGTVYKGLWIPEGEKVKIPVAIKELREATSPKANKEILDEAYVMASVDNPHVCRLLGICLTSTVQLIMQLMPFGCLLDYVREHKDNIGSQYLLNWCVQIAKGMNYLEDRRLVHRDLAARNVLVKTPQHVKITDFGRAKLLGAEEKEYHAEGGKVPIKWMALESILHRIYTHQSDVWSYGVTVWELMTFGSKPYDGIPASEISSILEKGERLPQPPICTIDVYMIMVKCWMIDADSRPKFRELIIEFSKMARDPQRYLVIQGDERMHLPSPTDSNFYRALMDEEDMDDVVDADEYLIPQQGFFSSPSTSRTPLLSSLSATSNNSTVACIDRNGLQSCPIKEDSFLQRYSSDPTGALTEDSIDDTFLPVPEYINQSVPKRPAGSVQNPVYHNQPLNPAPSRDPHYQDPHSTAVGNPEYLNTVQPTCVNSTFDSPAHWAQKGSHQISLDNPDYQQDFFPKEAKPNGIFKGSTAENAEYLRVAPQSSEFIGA
Chain of EGFR Δ746-750/C797S mutant (P00533 other isoform, or with tags, fused parts or gaps C797S/del 1-668/del 746-750 limits assumed): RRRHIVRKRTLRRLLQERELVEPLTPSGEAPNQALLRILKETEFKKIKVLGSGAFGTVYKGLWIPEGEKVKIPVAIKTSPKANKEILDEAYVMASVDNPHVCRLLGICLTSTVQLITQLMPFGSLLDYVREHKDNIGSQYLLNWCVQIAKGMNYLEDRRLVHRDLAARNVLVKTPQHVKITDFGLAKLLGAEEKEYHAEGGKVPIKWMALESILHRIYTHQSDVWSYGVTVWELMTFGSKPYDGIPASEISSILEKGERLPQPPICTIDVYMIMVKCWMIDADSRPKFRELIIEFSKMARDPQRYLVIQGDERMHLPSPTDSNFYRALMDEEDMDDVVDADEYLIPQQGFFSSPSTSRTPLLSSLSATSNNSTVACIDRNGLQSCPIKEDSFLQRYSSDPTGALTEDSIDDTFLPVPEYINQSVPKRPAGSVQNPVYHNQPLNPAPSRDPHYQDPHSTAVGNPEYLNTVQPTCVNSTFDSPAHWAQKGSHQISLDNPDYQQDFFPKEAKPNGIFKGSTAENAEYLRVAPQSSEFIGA
Chain of EGFR WT (P00533 25-1210): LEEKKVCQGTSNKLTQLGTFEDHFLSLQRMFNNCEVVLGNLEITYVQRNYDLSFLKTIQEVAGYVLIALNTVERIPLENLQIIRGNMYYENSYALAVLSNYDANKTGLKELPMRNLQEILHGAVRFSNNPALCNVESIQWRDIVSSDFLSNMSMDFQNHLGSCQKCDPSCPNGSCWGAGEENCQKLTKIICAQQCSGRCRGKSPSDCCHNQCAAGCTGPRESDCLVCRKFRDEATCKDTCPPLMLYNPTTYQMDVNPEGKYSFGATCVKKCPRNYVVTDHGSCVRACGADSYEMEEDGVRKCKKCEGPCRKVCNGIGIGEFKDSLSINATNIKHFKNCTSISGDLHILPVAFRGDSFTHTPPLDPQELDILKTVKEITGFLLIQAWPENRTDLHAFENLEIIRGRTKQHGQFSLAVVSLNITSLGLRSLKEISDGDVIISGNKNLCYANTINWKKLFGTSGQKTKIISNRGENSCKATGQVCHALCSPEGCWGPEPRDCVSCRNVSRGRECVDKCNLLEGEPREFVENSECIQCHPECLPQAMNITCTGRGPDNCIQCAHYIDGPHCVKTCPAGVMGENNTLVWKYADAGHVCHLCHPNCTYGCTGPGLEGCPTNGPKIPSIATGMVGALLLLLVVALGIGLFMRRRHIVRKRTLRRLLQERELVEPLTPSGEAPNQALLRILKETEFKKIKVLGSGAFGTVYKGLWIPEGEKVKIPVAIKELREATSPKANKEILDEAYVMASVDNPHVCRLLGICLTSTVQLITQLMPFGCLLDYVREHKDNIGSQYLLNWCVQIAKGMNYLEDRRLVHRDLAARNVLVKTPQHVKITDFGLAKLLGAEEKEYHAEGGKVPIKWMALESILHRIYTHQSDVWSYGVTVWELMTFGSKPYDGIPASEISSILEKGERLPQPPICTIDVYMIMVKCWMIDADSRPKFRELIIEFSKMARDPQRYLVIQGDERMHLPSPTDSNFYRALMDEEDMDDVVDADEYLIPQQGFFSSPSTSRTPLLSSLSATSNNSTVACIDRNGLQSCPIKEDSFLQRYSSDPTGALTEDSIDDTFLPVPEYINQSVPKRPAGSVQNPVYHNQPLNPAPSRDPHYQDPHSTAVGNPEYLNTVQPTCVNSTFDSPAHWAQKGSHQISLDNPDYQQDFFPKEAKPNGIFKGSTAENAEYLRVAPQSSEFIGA
Chain of EGFR (D770_N771insNPG) (P00533 other isoform, or with tags, fused parts or gaps del 1-668/ins NPG behind 770 limits assumed): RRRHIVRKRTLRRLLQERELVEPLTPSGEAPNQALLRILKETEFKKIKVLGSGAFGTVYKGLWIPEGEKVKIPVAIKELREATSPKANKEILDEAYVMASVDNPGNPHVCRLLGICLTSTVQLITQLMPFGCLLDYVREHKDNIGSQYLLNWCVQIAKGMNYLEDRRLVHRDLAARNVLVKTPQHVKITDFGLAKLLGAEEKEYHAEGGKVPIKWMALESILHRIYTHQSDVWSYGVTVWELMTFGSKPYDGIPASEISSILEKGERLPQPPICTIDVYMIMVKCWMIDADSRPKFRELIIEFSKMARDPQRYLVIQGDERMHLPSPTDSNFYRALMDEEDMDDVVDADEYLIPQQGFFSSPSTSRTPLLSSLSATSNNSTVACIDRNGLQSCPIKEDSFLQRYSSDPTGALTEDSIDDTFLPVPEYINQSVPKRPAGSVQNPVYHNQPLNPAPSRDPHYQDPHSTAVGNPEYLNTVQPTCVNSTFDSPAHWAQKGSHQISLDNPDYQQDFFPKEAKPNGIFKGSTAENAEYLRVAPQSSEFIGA
Chain of CLK1 (P49759 whole entry): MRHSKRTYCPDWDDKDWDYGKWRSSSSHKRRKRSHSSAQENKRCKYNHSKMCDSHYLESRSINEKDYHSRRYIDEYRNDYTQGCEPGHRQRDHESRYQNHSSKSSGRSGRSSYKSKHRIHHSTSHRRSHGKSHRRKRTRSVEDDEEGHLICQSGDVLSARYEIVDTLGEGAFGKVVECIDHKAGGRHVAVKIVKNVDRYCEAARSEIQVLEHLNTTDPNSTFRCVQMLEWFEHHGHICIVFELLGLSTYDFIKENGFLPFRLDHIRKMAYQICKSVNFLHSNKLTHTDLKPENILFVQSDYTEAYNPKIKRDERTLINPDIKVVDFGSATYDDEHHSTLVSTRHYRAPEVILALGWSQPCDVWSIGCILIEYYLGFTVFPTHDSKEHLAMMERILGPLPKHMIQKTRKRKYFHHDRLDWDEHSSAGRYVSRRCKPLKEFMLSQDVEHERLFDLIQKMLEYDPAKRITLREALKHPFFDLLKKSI
Chain of CLK2 (P49760 whole entry): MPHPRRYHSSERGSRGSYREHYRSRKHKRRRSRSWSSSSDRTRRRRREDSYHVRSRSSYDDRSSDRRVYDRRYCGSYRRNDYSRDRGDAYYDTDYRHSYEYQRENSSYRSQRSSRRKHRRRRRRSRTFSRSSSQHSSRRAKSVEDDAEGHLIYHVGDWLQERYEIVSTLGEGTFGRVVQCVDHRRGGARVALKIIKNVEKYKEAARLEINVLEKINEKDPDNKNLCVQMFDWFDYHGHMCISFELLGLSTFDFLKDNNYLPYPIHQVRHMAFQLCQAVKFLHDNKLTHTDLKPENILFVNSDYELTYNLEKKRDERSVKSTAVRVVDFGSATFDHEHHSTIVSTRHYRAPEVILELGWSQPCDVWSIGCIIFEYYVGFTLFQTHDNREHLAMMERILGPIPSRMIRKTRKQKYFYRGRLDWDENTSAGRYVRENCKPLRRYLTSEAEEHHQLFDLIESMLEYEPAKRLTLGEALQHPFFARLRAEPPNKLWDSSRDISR

| SMILES | IC50 (CLK3) [nM] | IC50 (CLK4) [nM] | IC50 (CLK1) [nM] | IC50 (CLK2) [nM] | IC50 [1] [nM] | IC50 (EGFR L858R/T790M mutant) [nM] | IC50 (EGFR L858R mutant) [nM] | IC50 (EGFR WT) [nM] | IC50 (EGFR (D770_N771insNPG)) [nM] | IC50 [2] [nM] | IC50 (EGFR Δ746-750 mutant) [nM] |
| --- | --- | --- | --- | --- | --- | --- | --- | --- | --- | --- | --- |
| Cc1nn(C)c2c1/C=C/c1n[nH]c3ccc(cc13)-c1cnn(C)c1O[C@@H](C)CN(C)[C@H]2C (single isomer, unassigned) [Example 145] | 99.6 | 0.52 | 0.21 | 0.04 |  |  |  |  |  |  |  |
| Cc1nn(C)c2c1/C=C/c1n[nH]c3ccc(cc13)-c1cnn(C)c1COCCO2 [Ex. 6, (17E)-8,14,16-trimethyl-2,8,9,11,12,14-hexahydro-3,5-etheno[1,4]dioxacyclopentadecino[11,10-c:15,14-c′:6,7-c″ ]tripyrazole] | 178 | 0.52 | 0.34 | 0.23 |  |  |  |  |  |  |  |
| C[C@H]1CN(C)Cc2c(c(OC3CCN(S(C)(=O)=O)CC3)nn2CCO)/C=C/c2n[nH]c3ccc(cc23)-c2cnn(C)c2O1 [Example 175, 2-[(10S,17E)-16-{[1-(methanesulfonyl)piperidin-4-yl]oxy}-8,10,12-trimethyl-2,8,10,11,12,13-hexahydro-14H-3,5-ethenotripyrazolo[3,4-f:3′,4′-j:4″,3″- n][1,4]oxazacyclopentadecin-14-yl]ethan-1-ol] |  |  |  |  | 8.97 | 2.06 | 42.6 | 176 | 713 | 3.39 | 67.8 |
| Cc1nn(C)c2c1-c1ccc3[nH]nc(c3c1)/C=C/c1c(OC(C)C)nn(CCO)c1CN(C(C)C)C[C@@H](C)O2 [Example 202, 2-{(10R,17E)-6,8,10-trimethyl-12-(propan-2-yl)-16-[(propan-2-yl)oxy]-2,8,10,11,12,13-hexahydro-14H-3,5-ethenotripyrazolo[3,4-f:3′,4′-j:4″,3″-n][1,4]oxazacyclopentadecin-14-yl}ethan-1-ol] |  |  |  |  | 20.7 | 3.38 | 98.8 | 179 | 423 | 2 | 45 |
| CC(C)Oc1nn([C@@H](C)CO)c2c1/C=C/c1n[nH]c3ccc(cc13)-c1cnn(C)c1O[C@H](C)CN(C(C)C)C2 [Example 207, (2S)-2-{(10R,17E)-8,10-dimethyl-12-(propan-2-yl)-16-[(propan-2-yl)oxy]-2,8,10,11,12,13-hexahydro-14H-3,5-ethenotripyrazolo[3,4-f:3′,4′-j:4″,3″- n][1,4]oxazacyclopentadecin-14-yl}propan-1-ol] |  |  |  |  | > 1000 | > 1000 | > 1000 | > 1000 | > 1000 | > 1000 | > 1000 |
| CCOC(=O)Cn1nc(OCC)c2c1CN(CC)C[C@H](C)Oc1c(cnn1C)-c1ccc3[nH]nc(c3c1)/C=C/2 [Example 218, ethyl [(10S,17E)-16-ethoxy-12-ethyl-8,10-dimethyl-2,8,10,11,12,13-hexahydro-14H-3,5-ethenotripyrazolo[3,4-f:3′,4′-j:4″,3″-n][1,4]oxazacyclopentadecin-14-yl]acetate] |  |  |  |  | 16.6 | 1.99 | 28.8 | 119 | 161 | 2.04 | 8.48 |
| CCOc1nn(CCO)c2c1/C=C/c1n[nH]c3cc(F)c(cc13)-c1c(C)nn(C)c1O[C@@H](C)CN(C(C)C)C2 [Example 239, 2-[(10S,17E)-16-ethoxy-19-fluoro-6,8,10-trimethyl-12-(propan-2-yl)-2,8,10,11,12,13-hexahydro-14H-3,5-ethenotripyrazolo[3,4-f:3′,4′-j:4″,3″-n][1,4]oxazacyclopentadecin-14-yl]ethan-1-ol] |  |  |  |  | 9.44 | 36.4 | 30.5 | 62.1 | 527 | 8.44 | 18.3 |

Continued, values first:

| IC50 (CLK3) [nM] | IC50 (CLK4) [nM] | IC50 (CLK1) [nM] | IC50 (CLK2) [nM] | IC50 [1] [nM] | IC50 (EGFR L858R/T790M mutant) [nM] | IC50 (EGFR L858R mutant) [nM] | IC50 (EGFR WT) [nM] | IC50 (EGFR (D770_N771insNPG)) [nM] | IC50 [2] [nM] | IC50 (EGFR Δ746-750 mutant) [nM] | SMILES |
| --- | --- | --- | --- | --- | --- | --- | --- | --- | --- | --- | --- |
|  |  |  |  | 8.1 | 0.72 | 12.8 | 99.8 | 45.6 | 0.55 | 15 | C[C@H]1CN(C)Cc2nn3c(c2/C=C/c2n[nH]c4ccc(cc24)-c2cnn(C)c2O1)CN(CCS(C)(=O)=O)CC3 [Example 166, (10S,20E)-18-[2-(methanesulfonyl)ethyl]-8,10,12-trimethyl-2,8,10,11,12,13,16,17,18,19-decahydro-3,5-ethenopyrazino[1′,2′:1,5]pyrazolo [3,4-f]dipyrazolo[3,4-j:4′,3′-n][1,4]oxazacyclopentadecine] |
|  |  |  |  | 6.6 | 0.54 | 24.7 | 139 | 300 | 1.37 | 24 | C[C@H]1CN(C)Cc2c(c(O[C@H]3CCN(S(C)(=O)=O)C3)nn2CCO)/C=C/c2n[nH]c3ccc(cc23)-c2cnn(C)c2O1 [Example 182, 2-[(10S,17E)-16-{[(3S)-1-(methanesulfonyl)pyrrolidin-3-yl]oxy}-8,10,12-trimethyl-2,8,10,11,12,13-hexahydro-14H-3,5-ethenotripyrazolo[3,4-f:3′,4′-j:4″,3″- n][1,4]oxazacyclopentadecin-14-yl]ethan-1-ol] |
|  |  |  |  | 1.93 | 1.77 | 5.5 | 5.49 | 20.1 | 2.53 | 1.85 | CCOc1nn(CCO)c2c1/C=C/c1n[nH]c3ccc(cc13)-c1c(C)nn(C)c1O[C@H](C)CN(C1CC1)C2 [Example 204] |
|  |  |  |  | 1.42 | 1 | 16.3 | 58.3 | 137 | 1.13 | 5.17 | CCOc1nn(CCO)c2c1/C=C/c1n[nH]c3ccc(cc13)-c1c(C)nn(C)c1OC[C@H](C)N(C1CC1)C2 [Example 205, 2-[(11S,17E)-12-cyclopropyl-16-ethoxy-6,8,11-trimethyl-2,8,10,11,12,13-hexahydro-14H-3,5-ethenotripyrazolo[3,4-f:3′,4′-j:4″,3″- n][1,4]oxazacyclopentadecin-14-yl]ethan-1-ol] |
|  |  |  |  | 1.94 | 0.69 | 37.1 | 71.7 | 107 | 1.42 | 3.61 | CCOc1nn(CCO)c2c1/C=C/c1n[nH]c3ccc(cc13)-c1cnn(C)c1O[C@H](C)CN(C(C)=O)C2 [Example 217, 1-[(10R,17E)-16-ethoxy-14-(2-hydroxyethyl)-8,10-dimethyl-2,8,10,11,13,14-hexahydro-12H-3,5-ethenotripyrazolo[3,4-f:3′,4′-j:4″,3″-n][1,4]oxazacyclopentadecin-12-yl]ethan-1-one] |
|  |  |  |  | 0.35 | 0.21 | 0.97 | 4.14 | 10.3 | 0.14 | 0.55 | C[C@H]1CN(C)Cc2c(c(OC3CN(S(C)(=O)=O)C3)nn2CCO)/C=C/c2n[nH]c3ccc(cc23)-c2cnn(C)c2O1 [Example 221, 2-[(10S,17E)-16-{[1-(methanesulfonyl)azetidin-3-yl]oxy}-8,10,12-trimethyl-2,8,10,11,12,13-hexahydro-14H-3,5-ethenotripyrazolo[3,4-f:3′,4′-j:4″,3″-n][1,4]oxazacyclopentadecin-14-yl]ethan-1-ol] |
|  |  |  |  | 1.98 | 2.55 | 1.66 | 1.63 | 3.21 | 5.27 | 0.75 | CC(C)Oc1nn(CCO)c2c1/C=C/c1n[nH]c3ccc(cc13)-c1cnn(C)c1O[C@H](C)[C@H]1CCCN1C2 [Example 253, 2-[(8aR,9R,19E)-9,11-dimethyl-1-[(propan-2-yl)oxy]-7,8,8a,9,11,17-hexahydro-6H-14,16-ethenotripyrazolo[3,4-f:3′,4′-j:4″,3″-n]pyrrolo[2,1-c][1,4]oxazacyclopentadecin-3(4H)-yl]ethan-1-ol] |

Source: patent US20250353864A1, “INDAZOLE CONTAINING MACROCYCLES AND THEIR USE” (BLOSSOMHILL THERAPEUTICS, INC., priority 2022, published 2025)
